Publication PMC7395068, “The evolution of strategies to minimise the risk of human drug-induced liver injury (DILI) in drug discovery and development” (Archives of Toxicology, 2020)
Read-outs that look alike come from different tables or passages of the source.

Key:
PHH [1] = conditions: In vitro Assay; ref Albrecht 2019; cited from earlier work
HepG2 = tested on: HepG2; set-up: method as in Albrecht 2019; conditions: In vitro Assay; ref Albrecht 2019; cited from earlier work
[2] = cited from earlier work
[3] = cited from earlier work; remark: listed apart in the source
[4] = tested on: THLE or HepG2 cells, isolated mitochondria, BSEP; conditions: cited from earlier work
[5] = tested on: HepG2 cells, primary human hepatocytes; conditions: In vitro Assay; ref Garside 2014; cited from earlier work
hLiMTs [6] = tested on: hLiMTs
[7] = Plasma free fraction (fu) and unbound Cmax (Cmax,u); type: in vitro ADME, human; conditions: unbound plasma Cmax
Procedure: The prediction of DILI severity was evaluated further using the 3D combined HCI assays using plasma-free fraction. The majority of fu values were obtained from literature, when unavailable in-house prediction was utilised. Unbound plasma Cmax concentrations (Cmax,u) were derived by multiplying total plasma Cmax with the corresponding free fraction (fu) for each compound.

HepG2 cells [8] = conditions: cited from earlier work
HepaRG spheroids [9] = assay: Combined HCI (HCS) and cellular ATP 3D assay in HepaRG spheroids; conditions: HepaRG; for AC50 / minimal effective concentration: Homo sapiens
[10] = read-out: Human plasma Cmax; total plasma Cmax.tot, median of 9 literature references; cited from earlier work
[11] = plasma free fraction; cited from earlier work
hLiMTs [12] = conditions: cited from earlier work
PHH [13] = conditions: cited from earlier work
human hepatocytes = conditions: cited from earlier work; for Structural based (HCI): In vitro Assay, ref Xu 2008
HepaRG spheroids [14] = tested on: HepaRG spheroids
HepG2 cells [15] = conditions: cited from earlier work; remark: listed apart in the source
PHH spheroids = conditions: cited from earlier work; for hLiMTs ATP <20 x Cmax: In vitro Assay, ref Vorrink 2018
hLiMTs [16] = assay: Combined HCI (HCS) and cellular ATP 3D assay in hLiMTs
[17] = ref Chen 2011; cited from earlier work
[18] = tested on: primary human hepatocytes, NIH3T3 fibroblasts, BSEP, CYP3A4; conditions: cited from earlier work
rBsep = conditions: In vitro Assay; ref Dawson 2012; cited from earlier work
[19] = tested on: THLE-Null and THLE-3A4 cells; conditions: In vitro Assay; ref Gustafsson 2014; cited from earlier work
[20] = In vitro Assay, ref Persson 2013
[21] = In vitro Assay, ref Proctor 2017
[22] = In vitro Assay, ref Schadt 2015

## OCCOCCN1CCN(C(c2ccccc2)c2ccc(Cl)cc2)CC1 (stereo not shown) [hydroxyzine]
PHH [1]
  Cytotoxicity PHH 48 hrs: -VE
HepG2
  Cytotoxicity HepG2 48 hrs: -VE
[2]; ref Chen 2016
  DILI +VE (5-8), DILI -VE (-4): -VE
  DILI severity category: vNo-DILI-Concern
[3]; […]
  In vivo DILI: -VE
[3]; ref Albrecht 2019
  In vivo DILI: -VE
[3]; ref Aleo 2019
  In vivo DILI: -VE
[4]; In vitro Assay, ref Aleo 2019
  Partition Hybrid HRM Score: +VE
  Ro2 Hybrid HRM Score: +VE

## O=C1CN(/N=C/c2ccc(-c3ccc([N+](=O)[O-])cc3)o2)C(O)=N1 [dantrolene]
[5]
  Cluster 1-6 +VE Assay: -VE
hLiMTs [6]
  DILI prediction hLiMTs (HCS-MEC): +VE (MEC < 25 × Cmax.tot cut-off)
[7]
  Human plasma Cmax,u: 0.552 µM
[2]; LTKB DILIrank category, ref Chen et al. 2016
  DILI severity category (Chen et al. [2016]): Most
[2]; human DILI classification, LTKB DILIrank, ref Chen et al. 2016
  DILI severity category (Chen 2016): Most
[2]; human DILI severity, ref Chen et al.
  DILI severity category: Most
[2]; ref Chen 2016
  DILI +VE (5-8), DILI -VE (-4): +VE
  DILI severity category: vMost-DILI-Concern
HepG2 cells [8]; [20]
  Cluser analysis: -VE
  Structural based (HCI): +VE
HepG2 cells [8]; Structural based (HCI), HepG2, ref Persson et al. 2013
  DILI in vitro assay prediction, Persson (2013): -VE
HepaRG spheroids [9]; ATP endpoint, cut-off <25x Avg Cmax
  HepaRG <25x Avg Cmax ATP: +ve
HepaRG spheroids [9]; ATP endpoint, cut-off <100x Avg Cmaxu
  HepaRG <100x Avg Cmaxu ATP: +ve (<100x Avg Cmaxu)
HepaRG spheroids [9]; HCS endpoints, cut-off <25x Avg Cmax
  HepaRG <25x Avg Cmax HCS: +ve
HepaRG spheroids [9]; HCS endpoints, cut-off <100x Avg Cmaxu
  HepaRG <100x Avg Cmaxu HCS: +ve (<100x Avg Cmaxu)
HepaRG spheroids [9]; all endpoints (ATP and HCS), cut-off <25x Avg Cmax
  HepaRG <25x Avg Cmax All: +ve
HepaRG spheroids [9]; all endpoints, Cmax max used
  HepaRG Cmax max All: +ve
HepaRG spheroids [9]; all endpoints, Cmax min used
  HepaRG Cmax min All: -ve
HepaRG spheroids [9]; all endpoints, cut-off <10 uM
  HepaRG <10 uM All: -ve
HepaRG spheroids [9]; all endpoints, cut-off <100x Avg Cmaxu
  HepaRG <100x Avg Cmaxu All: +ve (<100x Avg Cmaxu)
HepaRG spheroids [9]; read-out: ATP endpoint AC50
  AC50: 100 µM
HepaRG spheroids [9]; read-out: ATP endpoint MEC
  minimal effective concentration: 53.2 µM
HepaRG spheroids [9]; read-out: HCS endpoint AC50
  AC50: 174 µM
HepaRG spheroids [9]; read-out: HCS endpoint MEC
  minimal effective concentration: 14.5 µM
[10]
  Cmax: 3.95 µM
[11]
  fu: 0.140
hLiMTs [12]; [21]
  hLiMTs ATP <100uM: -VE
hLiMTs [12]; hLiMTs, ATP, IC50 threshold 100 µM, ref Proctor et al. 2017
  hLiMTs/100uM, Proctor (2017): -VE
PHH [13]; 2D PHH, ATP, IC50 threshold 100 µM, ref Proctor et al. 2017
  PHH/100uM, Proctor (2017): -VE
PHH [13]; [21]
  PHH ATP <100uM: -VE
Human hepatocytes
  Structural based (HCI): +VE
Human hepatocytes; Structural based (HCI), human hepatocytes, ref Xu et al. 2008
  DILI in vitro assay prediction, Xu (2008): +VE
HepaRG spheroids [14]
  DILI prediction HepaRG spheroids (HCS-MEC): +VE (MEC < 25 × Cmax.tot cut-off)
HepG2 cells [15]; In vitro Assay, ref O'Brien 2006
  Structural based (HCI): +VE
HepG2 cells [15]; Structural based (HCI), HepG2, ref O'Brien et al. 2006
  DILI in vitro assay prediction, O'Brien (2006): +VE (lowest HCI endpoint IC50 (or in the absence of dose–response < 100 µM) < 30 × total human plasma exposure levels (Cmax.tot))
[3]; Chen et al. 2016 or literature alignment, ref Chen et al. 2016
  Assigned DILI category: 3
[3]; […]
  In vivo DILI: +VE
[3]; ref Garside 2014
  In vivo DILI: +VE
[3]; ref O'Brien 2006
  In vivo DILI: +VE
[3]; ref Persson 2013
  In vivo DILI: +VE
[3]; ref Proctor 2017
  In vivo DILI: +VE
[3]; ref Vorrink 2018
  In vivo DILI: +VE
[3]; ref Williams 2019
  In vivo DILI: +VE
[3]; ref Xu 2008
  In vivo DILI: +VE
PHH spheroids
  hLiMTs ATP <20 x Cmax: +VE (IC20 < 20 × Cmax.tot cut-off)
PHH spheroids; PHH spheroids, ATP, 14 days, IC20 < 20 × Cmax.tot, ref Vorrink et al. 2018
  DILI in vitro assay prediction, Vorrink (2018): +VE (IC20 < 20 × Cmax.tot cut-off)
hLiMTs [16]; HCS endpoints only, 25 × Cmax.tot cut-off
  DILI prediction hLiMTs, HCI alone: detection
hLiMTs [16]; Homo sapiens, read-out: HCS endpoint AC50
  AC50: 51 µM
hLiMTs [16]; Homo sapiens, read-out: HCS endpoint MEC
  minimal effective concentration: 10.5 µM
hLiMTs [16]; cellular ATP only, 25 × Cmax.tot cut-off
  DILI prediction hLiMTs, ATP alone: unpredicted
hLiMTs [16]; hLiMTs, ATP endpoint, cut-off <25x Avg Cmax
  hLiMTs <25x Avg Cmax ATP: -ve
hLiMTs [16]; hLiMTs, ATP endpoint, cut-off <100x Avg Cmaxu
  hLiMTs <100x Avg Cmaxu ATP: -ve
hLiMTs [16]; hLiMTs, HCS endpoints, cut-off <25x Avg Cmax
  hLiMTs <25x Avg Cmax HCS: +ve
hLiMTs [16]; hLiMTs, HCS endpoints, cut-off <100x Avg Cmaxu
  hLiMTs <100x Avg Cmaxu HCS: +ve (<100x Avg Cmaxu)
hLiMTs [16]; hLiMTs, all endpoints (ATP and HCS), cut-off <25x Avg Cmax
  hLiMTs <25x Avg Cmax All: +ve
hLiMTs [16]; hLiMTs, all endpoints, Cmax max used
  hLiMTs Cmax max All: +ve
hLiMTs [16]; hLiMTs, all endpoints, Cmax min used
  hLiMTs Cmax min All: -ve
hLiMTs [16]; hLiMTs, all endpoints, cut-off <10 uM
  hLiMTs <10 uM All: -ve
hLiMTs [16]; hLiMTs, all endpoints, cut-off <100x Avg Cmaxu
  hLiMTs <100x Avg Cmaxu All: +ve (<100x Avg Cmaxu)
[17]
  DILI Score (FDA) (1-8): 8

## CC(CN1c2ccccc2Sc2ccccc21)N(C)C (stereo not shown) [promethazine]
PHH [1]
  Cytotoxicity PHH 48 hrs: -VE
HepG2
  Cytotoxicity HepG2 48 hrs: -VE
[2]; ref Chen 2016
  DILI +VE (5-8), DILI -VE (-4): +VE
  DILI severity category: vLess-DILI-Concern
[18]; [22]
  Cellular toxicity (3T3 cells): +VE
  Combined Assay: -VE
  GSH adduct HML: +VE
  Hepatocyte cellular toxicity: -VE
  MitoTox 3T3: -VE
  TDI CYP3A4: -VE
  hBSEP inhibition: -VE
Human hepatocytes
  Structural based (HCI): -VE
[3]; ref Albrecht 2019
  In vivo DILI: -VE
[3]; ref Schadt 2015
  In vivo DILI: -VE
[3]; ref Vorrink 2018
  In vivo DILI: -VE
[3]; ref Xu 2008
  In vivo DILI: -VE
PHH spheroids
  hLiMTs ATP <20 x Cmax: -VE

## C[C@H]1COc2c(N3CCN(C)CC3)c(F)cc3c(=O)c(C(=O)O)cn1c23 [levofloxacin]
PHH [1]
  Cytotoxicity PHH 48 hrs: +VE
HepG2
  Cytotoxicity HepG2 48 hrs: +VE
[2]; in vivo
  DILI +VE (5-8), DILI -VE (-4): +VE
  DILI severity category: vMost-DILI-Concern
rBsep
  Inhibition of rBsep cutoff<1& cmax u>.2: -VE
  Inhibition of rBsep cutoff<3: -VE
[18]
  Cellular toxicity (3T3 cells): -VE
  Combined Assay: -VE
  GSH adduct HML: -VE
  Hepatocyte cellular toxicity: -VE
  MitoTox 3T3: -VE
  TDI CYP3A4: -VE
  hBSEP inhibition: -VE
[19]
  THLE-Null: -VE
Human hepatocytes
  Structural based (HCI): -VE

## CC(C)NCC(O)COc1cccc2ccccc12 (stereo not shown) [propranolol, reference compound]
PHH [1]
  Cytotoxicity PHH 48 hrs: -VE
HepG2
  Cytotoxicity HepG2 48 hrs: -VE
rBsep
  Inhibition of rBsep cutoff<1& cmax u>.2: -VE
  Inhibition of rBsep cutoff<3: -VE
PHH spheroids; ATP, 14 days, not positive at higher concentrations, ref Vorrink et al. 2018
  response of PHH spheroids at 5 × Cmax.tot: positive
PHH spheroids
  hLiMTs ATP <20 x Cmax: -VE
[4]; In vitro Assay, ref Aleo 2019
  Ro2 Hybrid HRM Score: -VE
[4]
  Partition Hybrid HRM Score: +VE
